According to patent publication US7462640B2, “Indol-6yl sulfonamide derivatives, their preparation and their use as 5-HT-6 as modulators” (Laboratorios del Dr. Esteve S.A., priority 2003, dated 2008):

`CN(C)CCn1ccc2ccc(NS(=O)(=O)c3ccc4ccccc4c3)cc21` [Example 2, N-[1-(2-Dimethylaminoethyl)-1H-indole-6-yl]-naphthalene-2-sulfonamide] and `CN(C)CCn1ccc2ccc(NS(=O)(=O)c3cccc4ccccc34)cc21` [Example 3, N-[1-(2-Dimethylaminoethyl)-1H-indole-6-yl]-naphthalene-1-sulfonamide] cannot be ordered by melting point: 140 to 143 °C for the first, 139 to 142 °C for the second.

Work on `CN(C)CCn1ccc2ccc(NS(=O)(=O)c3cc(Cl)cc(Cl)c3)cc21` [Example 8, N-[1-(2-dimethylaminoethyl)-1H-indole-6-yl]-3,5-dichlorobenzenesulfonamide] yielded a melting point of 150 to 159 °C.
